The source of these data is ChEMBL document CHEMBL1201862, “PubChem BioAssay data set” (2004).

Common to all, as to assay: NCI tumour cell line growth inhibition, 48 h
Experiment [1] relates to SF-539.
Experiment [2] deals with SNB-75.
In experiment [3] the test system is NCI-H522.
Experiment [4] has as its system MDA-MB-435.
Experiment [5] relates to HCT-15.
Experiment [6] concerns NCI-H460.
For experiment [7], the system named is HOP-62.
Experiment [8] has as its system TK-10.
The test system of experiment [9] is HL-60.
Experiment [10] deals with SN12C.
Experiment [11] relates to SK-MEL-28.
Experiment [12] has as its system CAKI-1.
Experiment [13] deals with DU-145.
For experiment [14], the system named is COLO 205.
Experiment [15] deals with MCF7.
The test system of experiment [16] is MDA-MB-231.
The test system of experiment [17] is KM12.
Experiment [18] has as its system UACC-62.
For experiment [19], the system named is SW-620.
For experiment [20], the system named is RPMI-8226.

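96-well plates; 48 h exposure; 5 concentrations. Endpoints by linear interpolation between flanking doses. Not reached: highest tested concentration assigned. Here, GI50 denotes the concentration required for 50% inhibition of growth.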 Activity calls are given as the source filed them. No stated cut-off is given here; in the data, active = GI50 up to about 1.1 µM and inactive = higher. Bounds are passed on as bounds.

On to `CCCCCCCCCc1cccc(N2C(N)=NC(N)=NC2(C)C)c1`, for which the GI50 was 0.0339 µM (active) in [1]; 0.735 µM (active) in [2]; 0.0451 µM (active) in experiment [3]; 0.0165 µM (active) in experiment [4]; less than 0.01 µM in experiment [5]; < 0.01 µM (active) in experiment [6]. Also, the GI50 is < 0.0237 µM (active) in experiment [7]; 0.0304 µM (active) in experiment [8]; < 0.01 µM (active) in [9]; 0.0198 µM (active) in experiment [10]; 0.871 µM (active) in [11]; 0.293 µM (active) in [12]. Besides, the GI50 is < 0.0307 µM (active) in experiment [13]; 0.0209 µM (active) in experiment [14]; < 0.0204 µM (active) in experiment [15]; 0.302 µM (active) in experiment [16]; 0.0139 µM (active) in experiment [17]; < 0.01 µM (active) in experiment [18]. For the same molecule, the results for the GI50 in experiment [19] and in experiment [20] were < 0.01 µM (active) and 0.0112 µM (active), respectively.

In the case of `Cc1c(-c2ccccc2)[nH]c2ccc(Cl)cc2c1=O`, the GI50 was 22.2 µM (inactive) in experiment [1]; 26 µM (inactive) in experiment [2]; 21.3 µM (inactive) in experiment [3]; 16.4 µM (inactive) in experiment [4]; 28.7 µM in [5]; 0.314 µM (active) in [6]. Moreover, the GI50 in experiment [7] was 19.1 µM (inactive); in experiment [8], 36.6 µM (inactive); in [9] it was 24.2 µM (inactive); in experiment [10], > 100 µM (inactive); in experiment [11], 40.6 µM (inactive); in experiment [12], < 0.01 µM (active). Besides, the GI50 in [13] is 70 µM (inactive); in experiment [14], 70.6 µM (inactive); in experiment [15], 25.2 µM (inactive); in [16] it was 19 µM (inactive); in [17], 0.263 µM (active); in [18] it was 34.8 µM (inactive). Also, the GI50 in experiment [19] is 75.2 µM (inactive); in [20], 15.2 µM (inactive).

On to `Cc1cc(CS(=O)(=O)/C=C/c2ccccc2[N+](=O)[O-])c(CS(=O)(=O)/C=C/c2ccccc2[N+](=O)[O-])cc1C`, for which the GI50 in experiment [1] was 14.4 µM (inactive); in experiment [2], 5.27 µM (inactive); in experiment [3], 23.7 µM (inactive); in experiment [4] it was > 41.9 µM (inactive); in [5], greater than 33 µM; in [6], 33.8 µM (inactive). In addition, the GI50 was 19.1 µM (inactive) in experiment [7]; 35.4 µM (inactive) in [8]; > 79.4 µM (inactive) in experiment [9]; 52.6 µM (inactive) in experiment [10]; 68.7 µM (inactive) in experiment [11]; 35.7 µM (inactive) in experiment [12]. In addition, the GI50 was 56.2 µM (inactive) in experiment [13]; > 100 µM (inactive) in [14]; 8.13 µM (inactive) in [15]; 16.4 µM (inactive) in [16]; 81.8 µM (inactive) in [17]; 23.6 µM (inactive) in [18]. Also, the GI50 in experiment [19] is > 54.2 µM (inactive); in [20], 9.42 µM (inactive).

In the case of `c1ccc2c(c1)SCCC2NC1=NCCO1` (stereo not given), the GI50 in experiment [1] is > 100 µM (inactive); in experiment [2] it was > 100 µM (inactive); in experiment [3] it was > 100 µM (inactive); in experiment [4], > 100 µM (inactive); in experiment [5], greater than 100 µM; in experiment [6], > 100 µM (inactive). The GI50 in experiment [7], in experiment [8], in [9], in experiment [10], in experiment [11] and in experiment [12] was > 100 µM (inactive) in each case. In addition, the GI50 in experiment [13], in [14], in experiment [15], in experiment [16], in experiment [17] and in [18] was > 100 µM (inactive) in each case. Further, the GI50 in [19] and in experiment [20] was > 100 µM (inactive) in each case.

`O=C1C2CCN(CC2)C1CN1CCOCC1` (stereo not given): the GI50 is 15.4 µM (inactive) in experiment [1]; 17 µM (inactive) in experiment [2]; 0.689 µM (active) in experiment [3]; 15.5 µM (inactive) in experiment [4]; 2.18 µM in experiment [5]; 17.7 µM (inactive) in experiment [6]. Moreover, the GI50 in experiment [7] was 18.5 µM (inactive); in experiment [8], 6.82 µM (inactive); in experiment [9], 2.74 µM (inactive); in [10], 4.05 µM (inactive); in [11], 3.79 µM (inactive); in experiment [12], 2.16 µM (inactive). Besides, the GI50 was 6.47 µM (inactive) in experiment [13]; 1.79 µM (inactive) in [14]; 2.9 µM (inactive) in experiment [15]; 24.7 µM (inactive) in experiment [16]; 16.6 µM (inactive) in [17]; 16.1 µM (inactive) in experiment [18]. Besides, the GI50 in experiment [19] is 1.72 µM (inactive); in [20], 2.13 µM (inactive).

For `CCC(/C=C/c1ccccc1)=N\NC(=S)N/N=C(/C=C/c1ccccc1)CC`, the GI50 in experiment [1] was 31.5 µM (inactive); in experiment [2], > 100 µM (inactive); in experiment [3] it was 30.5 µM (inactive); in experiment [4], 46.5 µM (inactive); in experiment [5] it was 26.5 µM; in [6], 13.2 µM (inactive). Besides, the GI50 in [7] is > 100 µM (inactive); in experiment [8] it was > 100 µM (inactive); in [9], 19.6 µM (inactive); in experiment [10], 36.6 µM (inactive); in experiment [11], > 100 µM (inactive); in [12] it was > 100 µM (inactive). The GI50 in experiment [13] was 26.1 µM (inactive); in experiment [14] it was 30.8 µM (inactive); in [15], 41.8 µM (inactive); in experiment [16] it was > 100 µM (inactive); in experiment [17] it was 31.8 µM (inactive); in [18] it was 54.8 µM (inactive). Further, the GI50 in [19] was > 100 µM (inactive); in [20], 35.5 µM (inactive).

Regarding `Cc1nc2sccn2c1/C=C1/C(=O)Nc2cccc(Cl)c21`, the GI50 in [1] was > 100 µM (inactive); in experiment [2], > 100 µM (inactive); in [3], 45.8 µM (inactive); in [4], 11.6 µM (inactive); in [5], 47.2 µM; in experiment [6], 92 µM (inactive). The GI50 in experiment [7] is > 100 µM (inactive); in [8], > 100 µM (inactive); in [9], 52.7 µM (inactive); in experiment [10], > 100 µM (inactive); in experiment [11], > 100 µM (inactive); in experiment [12], > 100 µM (inactive). For the same molecule, the GI50 in experiment [13] was > 100 µM (inactive); in experiment [14], 71.4 µM (inactive); in [15] it was 23 µM (inactive); in experiment [16] it was 50.4 µM (inactive); in experiment [17], 38.3 µM (inactive); in [18] it was > 100 µM (inactive). Further, the GI50 is 41.4 µM (inactive) in experiment [19] and > 100 µM (inactive) in [20].
